Laboratory results taken from US20250282819A1, “MITOCHONDRIA-[…] PEPTIDE THAT CAN BE […] DELIVERED AT NANOMOLAR CONCENTRATION, AND USE THEREOF” (CAMP THERAPEUTICS INC., priority 2021, published 2025).
Values belong to the compound of their own block, whether it stands above or below them. Where a SMILES comes first, the peptide text is derived from it. [ ]: non-standard residue; d: D form. Cha = N[C@@H](CC1CCCCC1)C(=O)O

How the values were obtained:
HeLa cells [1] = assay: Relative cytotoxicity, number of cells normally attached; settings: 100 nM, 3 hours
Protocol: The relative cytotoxicity of the dimeric bundle peptides according to the present disclosure was compared and analyzed. For this purpose, 1×10^5 HeLa cells were treated with 100 nM of each peptide for 3 hours, washed three times with PBS, and then resuspended in PBS. After 30 minutes, five random photographs of each sample were taken under a light microscope to measure the number of cells normally attached to the cell culture dish.

HeLa cells [2] = assay: Preferential binding to CCCP-damaged mitochondria, confocal microscopy; type: cell-based; settings: 100 nM 3 hours, 20 μM CCCP
HeLa cells [3] = settings: EC50 concentration 3 hours, 0.5 mM H2O2
Protocol: Subsequently, after treatment with 0.5 mM of H2O2, the fluorescence was detected and imaged by confocal microscopy. The fluorescence intensity of the cells was calculated with an image analysis program (ZEN blue).
Then, the cells were stained with 2′,7′-dichlorofluorescin diacetate (H2DCFDA; Sigma, 287810, USA; 25 μM, 30 min) and washed twice with PBS. The cells were treated with 500 μM H2O2 in HBSS and incubated for an additional 10 minutes. DCF signal of the cells was detected by confocal microscope and an image thereof was taken. Green signal intensity of each image was calculated using ZEN blue software.

HeLa cells [4] = assay: ATP levels in damaged cells pretreated with peptide; type: cell-based; settings: HeLa cells pretreated 3 hours; H2O2, antimycin A, or CCCP
Protocol: The relative ATP levels of cells were compared by fluorescence intensity according to the method described in Experimental Example 8, and mitochondrial damage was induced by treatment with two different mitochondrial damaging agents (1 μM of antimycin A or 1 mM of H2O2).
Cellular ATP levels were assessed using an ATP detection kit (Abcam, ab113849, USA) according to the manufacturer's instructions. Fluorescence luminescence was measured with a microplate reader (Promega, Glomax 96 microplate luminometer, USA).

HeLa cells [5] = settings: HeLa cells pretreated 3 hours; H2O2, antimycin A, or CCCP
Protocol: (§1) 2×10^4 HeLa cells were seeded in a 96-well plate 24 hours before the experiment. The cells were then stained with MitoSOX™ (Thermo Fisher Scientific, M36008; 5 μM, 10 min) or tetramethylrhodamine ethyl ester (TMRE; Sigma, 87917; 600 nM, 15 min). The cells were washed with PBS, and HBSS was added thereto. Fluorescence signal of the cells was measured with a microplate reader (TECAN) at 37° C. (MitoSox, Ex/Em=510/580 nm; TMRE, Ex/Em=525/575 nm).

HeLa cells [6] = assay: Co-localization with endosome, lysosome and cardiolipin (NAO) markers; type: cell-based; settings: HeLa cells expressing CellLight early endosomes-GFP, 100 nM 3 hours
Protocol: Next, to investigate whether mitochondrial damage affects the amount of peptide present in lysosomes, cardiolipin-specific targeting was investigated using NAO in the presence or absence of CCCP.
For microscopic observation, HeLa cells were cultured in glass-bottom dishes (SPL, 200350, Korea). The cells were then treated with peptides for 3 hours and stained with MitoTracker™ (Thermo Fisher Scientific, A1372, USA; 100 nM, 1 hr), nonyl acridine orange (NAO; Thermo Fisher Scientific, A1372; 100 nM, 1 hr), Hoechst 33342 ([…], 20 min), CellLight™ early endosomes-GFP (Thermo Fisher Scientific, C10586; […], 16 hr), and/or LysoTracker™ (Thermo Fisher Scientific, L7525; 50 nM, 30 min). The cells were then rinsed with PBS and HBSS was added thereto. Images of the stained cells were obtained using a microscope (Zeiss LSM 880 and ELYRA PS.1). To generate ultra-high resolution images, a structured illumination process was performed with ZEN Black software. Pearson r values were calculated by using ImageJ software.

HeLa cells [7] = settings: observed for 4 hours
HeLa cells [8] = assay: Co-localization with Drp1-eGFP; type: cell-based; settings: HeLa cells transfected with Drp1-eGFP
Protocol: Wild-type Drp1 cDNA (kindly provided by Dr. Sunyong Chung, Ajou University School of Medicine) was amplified by polymerase chain reaction and inserted into the N-terminus of the eGFP gene in the pcDNA3.1-plasmid. Transfection of the plasmid was performed using Lipofectamine™ 3000 (Thermo Fisher Scientific, L3000001) according to the manufacturer's instructions.

HeLa cells [9] = settings: 10 or 30 nM 3 hours, then H2O2 for 1 hour
Protocol: The membrane potential of mitochondria was measured according to the method described in Experimental Example 7.
as §1

HeLa cells [10] = type: cell-based; settings: for level of EC50 value (cell-penetrating ability): comparison of CMP3013, LR10, MPP1a, SS-31
Protocol: Cell-penetrating ability was evaluated using the fluorescently-labeled versions of the dimeric bundle peptides synthesized in Example 3, and measured as EC50 values according to the method described in Experimental Example 3.
1×10^5 HeLa cells were seeded into a 24-well plate. After 24 hours, the peptide was added to the cells and further incubation was performed for 3 hours. The incubated cells were harvested, washed with PBS, suspended in PBS, and then analyzed by fluorescence-activated cell sorting (FACS; BD Accuri, USA). The cells whose fluorescence intensity exceeds the maximum intensity of untreated cells were classified as fluorescence-positive cells.

[11] = Cardiolipin binding assay, NBD fluorescence with liposomes
Protocol: To further validate specificity of CMP3013 for cardiolipin-rich membranes identified in Example 9, two model systems mimicking the inner mitochondrial membrane were constructed using POPC (1-palmitoyl-2-oleoyl-sn-glycero-3-phosphocholine) and POPE (1-palmitoyl-2-oleoyl-sn-glycero-3-phosphoethanolamine), and cardiolipin binding assays were performed using an NBD-labeled CMP3013 monomer (NBD-CMP3013m), according to the method described in Experimental Example 12.
For the association experiments, 1 μM of NBD-labeled peptide dissolved in PBS was prepared in a black 96-well plate. Liposome (POPC:POPE=2:1 or POPC:POPE=2:1, containing 10% cardiolipin) was added to the peptide until the desired concentration was achieved. The mixture of NBD-peptide and liposome was mixed well through pipetting, and then fluorescence emission of the sample was monitored (λex=467 nm, λem=536 nm).
For the association experiments depending on cardiolipin ratio, 1 μM of NBD-labeled peptide or C6-NBD dissolved in PBS was prepared in a black 96-well plate. Liposome (POPC:POPE=2:1, containing 0 to 20% cardiolipin) was added to the peptide until the desired concentration (5 μM) was achieved. This mixture was mixed well through pipetting and fluorescence emission of the sample was monitored (λex=467 nm, λem=536 nm).
For dissociation experiments, 1 μM of NBD-labeled peptide dissolved in PBS was prepared in a black 96-well plate. Liposome (POPC:POPE=2:1 or POPC:POPE=2:1, containing 10% cardiolipin) was added to the peptide until the desired concentration (100 μM) was achieved. The mixture of NBD-peptide and liposome was mixed well through pipetting and fluorescence intensity of the mixture was measured (λex=467 nm, λem=536 nm). The unlabeled peptide (acetylated peptide) was then added to the mixture and mixed well through pipetting. Incubation in the dark was performed for 10 minutes, and then changes in fluorescence intensity were monitored. Peptide addition and fluorescence measurement were repeated until the concentration of acetylated peptide reached 40 μM.

[12] = SPR binding to inner membrane model on sensor chip
Protocol: The surface plasmon resonance (SPR) technique was used to determine binding ability of the peptide to liposome. Specifically, an L1 sensor chip was inserted into a Biacore™ T200 SPR system (Cytiva, USA) and then liposome was injected so that the liposome binds to the sensor chip. Subsequently, 1 μM of NBD-CMP3013m peptide was injected to check the signal intensity increased by the binding of liposome and CMP3013.
Two types of model systems mimicking the inner mitochondrial membrane were constructed using POPC and POPE according to the method described in Experimental Example 12, and NBD-labeled CMP3013 monomer (NBD-CMP3013m) and NBD-labeled SS-31 (NBD-SS-31) were used to compare and analyze their cardiolipin binding ability.

level of EC50 value (cell-penetrating ability) (HeLa cells [10]): nanomolar level of EC50 value
Compound: AcNH-RCRLLRRLRLCR-C(O)NH2 [LR10, peptide included in the L1L, L4L, L5L, and L8L sub-libraries, additional comparison group]
improvement in cell penetration rate as compared with SS-31 (HeLa cells [10]): approximately 100 fold

faster binding to 10% CL liposome versus POPC/POPE liposome alone ([11]; 1 μM NBD-labeled peptide): approximately 10 fold
greater final fluorescence intensity with 10% CL liposome versus POPC/POPE liposome alone ([11]; 1 μM NBD-labeled peptide): 2 fold
Compound: NBD-NH-XCRLXRRXCR-C(O)NH2 [NBD-CMP3013m]

level of EC50 value (cell-penetrating ability) (HeLa cells [10]): micromolar level of EC50 value
Compound: X(dR)XKX(dR)XK [MPP1a, reference compound]

Continued, compound first:

Compound: CC(=O)N[C@@H](CC1CCCCC1)C(=O)N[C@H]1CSSC[C@@H](C(=O)N[C@@H](CCCNC(=N)N)C(N)=O)NC(=O)[C@H](CC(C)C)NC(=O)[C@H](CCCNC(=N)N)NC(=O)[C@H](CCCNC(=N)N)NC(=O)[C@H](CC2CCCCC2)NC(=O)[C@H](CC2CCCCC2)NC(=O)[C@H](CCCNC(=N)N)NC(=O)[C@@H](NC(=O)[C@H](CC2CCCCC2)NC(C)=O)CSSC[C@@H](C(=O)N[C@@H](CCCNC(=N)N)C(N)=O)NC(=O)[C@H](CC(C)C)NC(=O)[C@H](CCCNC(=N)N)NC(=O)[C@H](CCCNC(=N)N)NC(=O)[C@H](CC2CCCCC2)NC(=O)[C@H](CC2CCCCC2)NC(=O)[C@H](CCCNC(=N)N)NC1=O [CMP3011] (HELM PEPTIDE1{[ac].[Cha].C.R.[Cha].[Cha].R.R.L.C.R.[am]}|PEPTIDE2{[ac].[Cha].C.R.[Cha].[Cha].R.R.L.C.R.[am]}$PEPTIDE1,PEPTIDE2,3:R3-10:R3|PEPTIDE1,PEPTIDE2,10:R3-3:R3$$$V2.0)
relative cytotoxicity (HeLa cells [1]): relatively highest cytotoxicity

Compound: CC(=O)N[C@@H](CC1CCCCC1)C(=O)N[C@H]1CSSC[C@@H](C(=O)N[C@@H](CCCNC(=N)N)C(N)=O)NC(=O)[C@H](CC2CCCCC2)NC(=O)[C@H](CCCNC(=N)N)NC(=O)[C@H](CCCNC(=N)N)NC(=O)[C@H](CC2CCCCC2)NC(=O)[C@H](CC(C)C)NC(=O)[C@H](CCCNC(=N)N)NC(=O)[C@@H](NC(=O)[C@H](CC2CCCCC2)NC(=O)c2ccc3c(c2)C(=O)OC32c3ccc(N(C)C)cc3Oc3cc(N(C)C)ccc32)CSSC[C@@H](C(=O)N[C@@H](CCCNC(=N)N)C(N)=O)NC(=O)[C@H](CC2CCCCC2)NC(=O)[C@H](CCCNC(=N)N)NC(=O)[C@H](CCCNC(=N)N)NC(=O)[C@H](CC2CCCCC2)NC(=O)[C@H](CC(C)C)NC(=O)[C@H](CCCNC(=N)N)NC1=O [FL-CMP3013] (HELM PEPTIDE1{[ac].[Cha].C.R.L.[Cha].R.R.[Cha].C.R.[am]}|PEPTIDE2{[CN(C)c1ccc2c(c1)Oc1cc(N(C)C)ccc1C21OC(=O)c2cc(C(=O)[*:2])ccc21].[Cha].C.R.L.[Cha].R.R.[Cha].C.R.[am]}$PEPTIDE1,PEPTIDE2,3:R3-10:R3|PEPTIDE1,PEPTIDE2,10:R3-3:R3$$$V2.0)
targeting of damaged mitochondria (HeLa cells [2]): co-localized more with donut-shaped or bulge-shaped mitochondria
ROS production inhibiting ability (HeLa cells [3]): greatest inhibition of ROS production
ATP production (HeLa cells [4]): resumed ATP production
ROS production (HeLa cells [5]): inhibited ROS production
co-localization with endosomal marker (HeLa cells [6]): less than 20%
cell survival after CCCP (HeLa cells [7]): survived even after 4 hours
co-localization with Drp1 (HeLa cells [8]): co-localize perfectly with Drp1
mitochondrial membrane potential (HeLa cells [9]): increased by FL-CMP3013 treatment in a concentration-dependent manner

Compound: XCRLXRRXCR (Ac-[Cha]CRL[Cha]RR[Cha]CR-NH2; cysteine pairing not given here) [CMP3013m, acetyl-capped monomeric peptide, X = Cha]
binding to pathogenically altered membrane (5 to 10% cardiolipin, 10% DLCL) ([11]; POPC:POPE (2:1) liposomes): can bind to a cardiolipin-damaged membrane
slower dissociation from CL-containing membrane than from cardiolipin-free membrane ([11]; competition assay with unlabeled peptide): approximately 10 fold
binding capacity for liposome membranes, CMP3013m versus SS-31 ([11]; liposomes with cardiolipin or di-lysocardiolipin): better binding capacity for all types of membranes
dissociation from the cardiolipin-containing membrane [12]: did not dissociate from the cardiolipin-containing membrane
greater response unit (RU) for membrane containing 10% cardiolipin versus POPC/POPE membrane alone ([12]; 1 μM peptide): approximately 50%
